# From the supplement of paper PMC10307832
# Assays:
# Experiment in all cases: relative viability (nuclei count vs DMSO), 5 days (fraction); higher = more cells survive
# [1] = system: 201T
# Procedure, shortened: (§1)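 Nuclei were stained with Hoechst during a one-step fixation (final 0.05% Triton X-100, 1% formaldehyde, 1 ug/ml Hoechst) carried out 5 days after dosing, then counted on 4× images. The cells, lung cancer lines in 1536-well plates, had been dosed by pin tool the day after seeding with one drug alone or a fixed anchor-drug dose plus five library-drug doses (not always all listed) in √10 steps. Relative viability is the nuclei count in treated wells divided by that in vehicle wells, and each value is the median of duplicate plates.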
# [2] = system: CAL-12T
# Procedure, shortened: as §1
# [3] = system: COR-L23
# Procedure, shortened: as §1
# [4] = system: ChaGo-K-1
# Procedure, shortened: as §1
# [5] = system: HOP-62
# Procedure, shortened: as §1
# [6] = system: LC-2-ad
# Procedure, shortened: as §1
# [7] = system: NCI-H1355
# Procedure, shortened: as §1
# [8] = system: NCI-H1395
# Procedure, shortened: as §1
# [9] = system: NCI-H1651
# Procedure, shortened: as §1
# [10] = system: NCI-H1666
# Procedure, shortened: as §1
# [11] = system: NCI-H1734
# Procedure, shortened: as §1
# [12] = system: NCI-H1944
# Procedure, shortened: as §1
# [13] = system: NCI-H1993
# Procedure, shortened: as §1
# [14] = system: NCI-H2085
# Procedure, shortened: as §1
# [15] = system: NCI-H2170
# Procedure, shortened: as §1
# [16] = system: NCI-H2228
# Procedure, shortened: as §1
# [17] = system: NCI-H322M
# Procedure, shortened: as §1
# [18] = system: NCI-H520
# Procedure, shortened: as §1
# [19] = system: NCI-H661
# Procedure, shortened: as §1
# [20] = system: NCI-H838
# Procedure, shortened: as §1
# [21] = system: RERF-LC-KJ
# Procedure, shortened: as §1
smiles,measurement,setting,value
COCC1(CO)C(=O)C2CCN1CC2 (stereo not given) [PRIMA-1MET] + CS(=O)(=O)N1CCN(Cc2cc3nc(-c4cccc5[nH]ncc45)nc(N4CCOCC4)c3s2)CC1 [Pictilisib] (partner 1 µM),relative viability,[1]; first compound 0.2 µM,0.709
same,relative viability,[1]; first compound 0.6325 µM,0.593
same,relative viability,[1]; first compound 2 µM,0.525
same,relative viability,[1]; first compound 6.325 µM,0.741
same,relative viability,[1]; first compound 20 µM,0.694
same,relative viability,[2]; first compound 0.2 µM,0.486
same,relative viability,[2]; first compound 0.6325 µM,0.421
same,relative viability,[2]; first compound 2 µM,0.315
same,relative viability,[2]; first compound 6.325 µM,0.332
same,relative viability,[2]; first compound 20 µM,0.0828
same,relative viability,[3]; first compound 0.2 µM,0.77
same,relative viability,[3]; first compound 0.6325 µM,0.76
same,relative viability,[3]; first compound 2 µM,0.765
same,relative viability,[3]; first compound 6.325 µM,0.786
same,relative viability,[3]; first compound 20 µM,0.0196
same,relative viability,[4]; first compound 0.2 µM,0.732
same,relative viability,[4]; first compound 0.6325 µM,0.468
same,relative viability,[4]; first compound 2 µM,0.84
same,relative viability,[4]; first compound 6.325 µM,0.752
same,relative viability,[4]; first compound 20 µM,0.328
same,relative viability,[5]; first compound 0.2 µM,0.442
same,relative viability,[5]; first compound 0.6325 µM,0.465
same,relative viability,[5]; first compound 2 µM,0.368
same,relative viability,[5]; first compound 6.325 µM,0.734
same,relative viability,[5]; first compound 20 µM,0.392
same,relative viability,[6]; first compound 0.2 µM,0.933
same,relative viability,[6]; first compound 0.6325 µM,0.445
same,relative viability,[6]; first compound 2 µM,0.321
same,relative viability,[6]; first compound 6.325 µM,0.468
same,relative viability,[6]; first compound 20 µM,0.421
same,relative viability,[7]; first compound 0.2 µM,0.366
same,relative viability,[7]; first compound 0.6325 µM,0.35
same,relative viability,[7]; first compound 2 µM,0.308
same,relative viability,[7]; first compound 6.325 µM,0.36
same,relative viability,[7]; first compound 20 µM,0.541
same,relative viability,[8]; first compound 0.2 µM,0.613
same,relative viability,[8]; first compound 0.6325 µM,0.458
same,relative viability,[8]; first compound 2 µM,0.602
same,relative viability,[8]; first compound 6.325 µM,0.518
same,relative viability,[8]; first compound 20 µM,0.383
same,relative viability,[9]; first compound 0.2 µM,0.662
same,relative viability,[9]; first compound 0.6325 µM,0.583
same,relative viability,[9]; first compound 2 µM,0.505
same,relative viability,[9]; first compound 6.325 µM,0.596
same,relative viability,[9]; first compound 20 µM,0.44
same,relative viability,[10]; first compound 0.2 µM,0.494
same,relative viability,[10]; first compound 0.6325 µM,0.335
same,relative viability,[10]; first compound 2 µM,0.54
same,relative viability,[10]; first compound 6.325 µM,0.415
same,relative viability,[10]; first compound 20 µM,0.198
same,relative viability,[11]; first compound 0.2 µM,0.446
same,relative viability,[11]; first compound 0.6325 µM,0.465
same,relative viability,[11]; first compound 2 µM,0.408
same,relative viability,[11]; first compound 6.325 µM,0.386
same,relative viability,[11]; first compound 20 µM,0.0877
same,relative viability,[12]; first compound 0.2 µM,0.332
same,relative viability,[12]; first compound 0.6325 µM,0.324
same,relative viability,[12]; first compound 6.325 µM,0.328
same,relative viability,[12]; first compound 20 µM,0.363
same,relative viability,[13]; first compound 0.2 µM,0.949
same,relative viability,[13]; first compound 0.6325 µM,0.797
same,relative viability,[13]; first compound 2 µM,0.732
same,relative viability,[13]; first compound 6.325 µM,0.873
same,relative viability,[13]; first compound 20 µM,0.854
same,relative viability,[14]; first compound 0.2 µM,0.44
same,relative viability,[14]; first compound 0.6325 µM,0.419
same,relative viability,[14]; first compound 2 µM,0.33
same,relative viability,[14]; first compound 6.325 µM,0.4
same,relative viability,[14]; first compound 20 µM,0.359
same,relative viability,[15]; first compound 0.2 µM,0.312
same,relative viability,[15]; first compound 0.6325 µM,0.276
same,relative viability,[15]; first compound 2 µM,0.283
same,relative viability,[15]; first compound 6.325 µM,0.336
same,relative viability,[15]; first compound 20 µM,0.297
same,relative viability,[16]; first compound 0.2 µM,0.421
same,relative viability,[16]; first compound 0.6325 µM,0.343
same,relative viability,[16]; first compound 2 µM,0.358
same,relative viability,[16]; first compound 6.325 µM,0.19
same,relative viability,[16]; first compound 20 µM,0.0615
same,relative viability,[17]; first compound 0.2 µM,0.543
same,relative viability,[17]; first compound 6.325 µM,0.492
same,relative viability,[17]; first compound 20 µM,0.451
same,relative viability,[18]; first compound 0.2 µM,0.345
same,relative viability,[18]; first compound 0.6325 µM,0.285
same,relative viability,[18]; first compound 6.325 µM,0.368
same,relative viability,[18]; first compound 20 µM,0.13
same,relative viability,[19]; first compound 0.2 µM,0.396
same,relative viability,[19]; first compound 0.6325 µM,0.238
same,relative viability,[19]; first compound 6.325 µM,0.447
same,relative viability,[19]; first compound 20 µM,0.262
same,relative viability,[20]; first compound 0.2 µM,0.46
same,relative viability,[20]; first compound 0.6325 µM,0.448
same,relative viability,[20]; first compound 2 µM,0.355
same,relative viability,[20]; first compound 6.325 µM,0.589
same,relative viability,[20]; first compound 20 µM,0.632
same,relative viability,[21]; first compound 0.2 µM,0.538
same,relative viability,[21]; first compound 0.6325 µM,0.595
same,relative viability,[21]; first compound 2 µM,0.64
same,relative viability,[21]; first compound 6.325 µM,0.623
same,relative viability,[21]; first compound 20 µM,0.624
